The values that follow are results of earlier work, collected in patent publication US20030190375A1, “Therapeutical use of sophora flavescens or sophora subprostrata extracts” (priority 2000, published 2003).

The subject of one data set is Ishikawa-Var-I cells. The conditions noted are these: Milligan et al 1999.
For data set [1] the following is noted: Huang, The Pharmacology of Chinese Herbs, 1993.

In the case of `CC(C)=CCc1c(O)cc(O)c2c1O[C@H](c1ccc(O)cc1)CC2=O` [8-prenylnaringenine], the “oestrogenic potency in vitro (stimulation of alkaline phosphatase)” value in the data set with Ishikawa-Var-I cells is “significantly more active than the long-familiar phyto-oestrogens such as cumesterol, genistone or daidzin, and produced only a slightly weaker effect than 17β oestradiol”.

As to `O=C1CCC[C@@H]2[C@H]3CCC[N+]4([O-])CCC[C@@H](CN12)[C@@H]34` (some centres unmarked) [oxymatrine], the “toxic effects in animal studies” value in data set [1] is listed as “toxic effects could be shown”.
